According to patent publication US10392389B2, “Heterocyclic compounds for the inhibition of PASK” (BioEnergenix, LLC, priority 2012, dated 2019):

Assays:
PASK = target: T1, PASK (UniProt #Q96RG2; human recombinant N-terminal GST tagged construct, residues 879-1323) (Homo sapiens, UniProt Q96RG2); assay: PASK ATP Radiochemical Assay; assay type: biochemical; details: 33P-ATP, Myelin Basic Protein substrate, read-out: IC50 Kinase Domain
T1 construct: N-terminal GST tagged construct, residues 879-1323; GST (N); host or cells: insect cells
T1 sequence (Q96RG2 879-1323, stated change not applied): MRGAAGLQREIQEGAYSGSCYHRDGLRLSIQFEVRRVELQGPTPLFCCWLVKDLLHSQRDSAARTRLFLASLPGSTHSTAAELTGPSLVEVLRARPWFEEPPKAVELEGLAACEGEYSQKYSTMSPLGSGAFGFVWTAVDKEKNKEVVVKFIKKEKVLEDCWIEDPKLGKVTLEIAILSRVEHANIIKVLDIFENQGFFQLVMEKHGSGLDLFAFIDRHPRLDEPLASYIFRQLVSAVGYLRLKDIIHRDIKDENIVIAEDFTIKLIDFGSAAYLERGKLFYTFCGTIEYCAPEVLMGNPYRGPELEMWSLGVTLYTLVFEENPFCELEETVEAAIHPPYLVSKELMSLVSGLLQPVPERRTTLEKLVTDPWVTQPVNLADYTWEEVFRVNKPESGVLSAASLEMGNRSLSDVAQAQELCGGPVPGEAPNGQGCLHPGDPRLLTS
Method: Biochemical Assay for hPASK Activity
PASK ATP Radiochemical Assay
(§1) Purified PASK (UniProt #Q96RG2; human recombinant N-terminal GST tagged construct, residues 879-1323) from insect cells (final concentration 5 nM) is added to freshly prepared Base Reaction Buffer containing 20 mM HEPES (pH 7.5), 10 mM MgCl2, 1 mM EGTA, 0.02% Brij35, 0.02 mg/ml BSA, 0.1 mM Na3VO4, 2 mM DTT, 1% DMSO and Myelin Basic Protein (20 μM final). Test compounds in DMSO are then added and the mixture, followed by delivery of ^33P-ATP (specific activity 0.01 μCi/μl final) to initiate the reaction. The kinase reaction is incubated for 120 min at room temperature. The entire reaction mixture is washed through onto a P81 Phosphocellulose paper and washed three times for 10 minutes in 75 mM phosphoric acid and once in methanol prior to drying and scintillation counting.

[1] = target: T2, CK2a2 (NP_001887; human full-length protein, GST tagged) (Homo sapiens, UniProt P19784); assay: Biochemical Assay for CK2 Activity; details: 33P-ATP radiochemical assay, CK2 sub [RRRDDDSDDD]
T2 construct: human full-length protein, GST tagged; GST; host or cells: insect cells
T2 sequence (P19784 whole entry): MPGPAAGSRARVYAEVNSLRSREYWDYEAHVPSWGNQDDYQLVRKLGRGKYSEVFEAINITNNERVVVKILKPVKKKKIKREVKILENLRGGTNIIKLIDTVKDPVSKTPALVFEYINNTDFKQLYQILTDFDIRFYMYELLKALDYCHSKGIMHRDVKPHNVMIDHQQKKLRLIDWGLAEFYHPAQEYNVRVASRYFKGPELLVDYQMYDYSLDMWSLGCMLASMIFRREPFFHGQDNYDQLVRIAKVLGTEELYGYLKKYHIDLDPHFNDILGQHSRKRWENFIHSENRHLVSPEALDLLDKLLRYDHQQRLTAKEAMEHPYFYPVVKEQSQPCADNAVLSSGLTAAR
Method: Biochemical Assay for CK2 Activity
as §1, with “Purified CK2a2 (NP_001887;” for “Purified PASK (UniProt #Q96RG2;”, “human full-length protein,” for “human recombinant N-terminal”, “GST tagged)” for “GST tagged construct, residues 879-1323)”, “concentration 1.2” for “concentration 5”, “mM Hepes” for “mM HEPES”, “and CK2 sub [RRRDDDSDDD]” for “and Myelin Basic Protein”

PASK (Invitrogen) = target: T3, PASK (Invitrogen) (Homo sapiens, UniProt Q96RG2); assay: PAS Kinase FRET Assay; assay type: biochemical; details: PAS kinase TR-FRET assay (665 nm/615 nm); read-out: IC50 Kinase Domain
T3 construct: IC50 Kinase Domain; purchased Invitrogen
T3 sequence (Q96RG2 999-1251 limits assumed): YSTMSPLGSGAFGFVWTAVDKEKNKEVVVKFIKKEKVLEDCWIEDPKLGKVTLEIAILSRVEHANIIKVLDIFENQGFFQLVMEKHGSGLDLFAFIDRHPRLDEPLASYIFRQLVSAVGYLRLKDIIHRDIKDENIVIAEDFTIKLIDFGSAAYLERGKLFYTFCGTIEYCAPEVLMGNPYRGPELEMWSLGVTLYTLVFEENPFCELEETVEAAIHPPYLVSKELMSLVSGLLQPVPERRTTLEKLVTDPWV
Summary of the method: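 PASK phosphorylates a ULight-peptide with ATP in 50 mM HEPES, 10 mM MgCl2, 1 mM EGTA, 0.01% Tween-20, 2 mM DTT for 2 h at 25° C in the dark. Compounds are added as 4× serial dilutions (top 12×10^−5 M at 4×). After stopping, an Eu anti-phospho-substrate antibody is added for 1 h and TR-FRET is read at 665/615 nm.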

[2] = target: T4, PIM1 (NP_002639; human full-length protein, 6×His tagged) (Homo sapiens, UniProt P11309); assay: Biochemical Assay for PIM1 Activity; details: 33P-ATP radiochemical assay, S6K/Rsk2 peptide 2 substrate
T4 construct: human full-length protein, 6×His tagged; 6xHis; host or cells: insect cells
T4 sequence (P11309 whole entry): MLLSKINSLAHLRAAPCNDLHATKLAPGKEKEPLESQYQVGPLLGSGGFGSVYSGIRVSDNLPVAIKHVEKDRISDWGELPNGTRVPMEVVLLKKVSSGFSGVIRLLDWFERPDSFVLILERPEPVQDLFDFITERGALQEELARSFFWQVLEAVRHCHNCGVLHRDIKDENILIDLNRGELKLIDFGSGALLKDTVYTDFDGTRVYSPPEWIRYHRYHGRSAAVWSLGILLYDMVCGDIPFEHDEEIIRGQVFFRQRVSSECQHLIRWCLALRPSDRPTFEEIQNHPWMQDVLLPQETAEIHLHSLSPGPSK
Method: Biochemical Assay for PIM1 Activity
as §1, with “Purified PIM1 (NP_002639;” for “Purified PASK (UniProt #Q96RG2;”, “human full-length protein, 6×His tagged)” for “human recombinant N-terminal GST tagged construct, residues 879-1323)”, “concentration 1.0” for “concentration 5”, “mM Hepes” for “mM HEPES”, “and substrate S6K/Rsk2 peptide 2 [KKRNRTLTK]” for “and Myelin Basic Protein”, “activity 10” for “activity 0.01”

| IC50 (PASK) | IC50 [1] | IC50 (PASK (Invitrogen)) | IC50 [2] | SMILES |
| --- | --- | --- | --- | --- |
| ≤ 10 µM | ≤ 10 µM | ≤ 10 µM | ≤ 10 µM | CCn1ncc2cc(-c3cc(=O)n4ncc(-c5oncc5C)c4[nH]3)ccc21 [Example 87, 5-(1-ethyl-1H-indazol-5-yl)-3-(4-methyl-1,2-oxazol-5-yl)-4H,7H-pyrazolo[1,5-a]pyrimidin-7-one] |
| ≤ 10 µM | ≤ 10 µM | ≤ 10 µM | ≤ 10 µM | Cc1cnc(-c2cnn3c(=O)cc(-c4ccc5onc(C)c5c4)[nH]c23)o1 [Example 91, 5-(3-methylbenzo[d]isoxazol-5-yl)-3-(5-methyloxazol-2-yl)pyrazolo[1,5-a]pyrimidin-7(4H)-one] |
| ≤ 10 µM | ≤ 10 µM | ≤ 10 µM | ≤ 10 µM | CCn1ncc2cc(-c3cc(=O)n4ncc(-c5noc6ccccc56)c4[nH]3)ccc21 [Example 59, 3-(benzo[d]isoxazol-3-yl)-5-(1-ethyl-1H-indazol-5-yl)pyrazolo[1,5-a]pyrimidin-7(4H)-one] |
| ≤ 10 µM | ≤ 10 µM | ≤ 10 µM | ≤ 10 µM | Cn1ccc(-c2cnn3c(=O)cc(-c4ccc5c(cnn5C)c4)[nH]c23)n1 [Example 83, 5-(1-methyl-1H-indazol-5-yl)-3-(1-methyl-1H-pyrazol-3-yl)pyrazolo[1,5-a]pyrimidin-7(4H)-one] |
| ≤ 10 µM | ≤ 10 µM | ≤ 10 µM | ≤ 10 µM | CCc1coc(-c2cnn3c(=O)cc(-c4ccc5[nH]nnc5c4)[nH]c23)n1 [Example 15, 5-(1H-1,2,3-benzotriazol-5-yl)-3-(4-ethyl-1,3-oxazol-2-yl)-4H,7H-pyrazolo[1,5-a]pyrimidin-7-one] |
| ≤ 10 µM | ≤ 10 µM | ≤ 10 µM | ≤ 10 µM | Cc1cnc(-c2cnn3c(=O)cc(-c4ccc5[nH]nnc5c4)[nH]c23)o1 [Example 5, 5-(1H-1,2,3-benzotriazol-5-yl)-3-(5-methyl-1,3-oxazol-2-yl)-4H,7H-pyrazolo[1,5-a]pyrimidin-7-one] |
| ≤ 10 µM | ≤ 10 µM | ≤ 10 µM | ≤ 10 µM | COc1cc(-c2cc(=O)n3ncc(-c4ncc(C)s4)c3[nH]2)ccc1Cl [Example 56, 5-(4-chloro-3-methoxyphenyl)-3-(5-methylthiazol-2-yl)pyrazolo[1,5-a]pyrimidin-7(4H)-one] |
| ≤ 10 µM | > 10 µM | ≤ 10 µM | ≤ 10 µM | Cn1ccc(-c2cnn3c(=O)cc(-c4ccc(Cl)c(OCC(F)(F)F)c4)[nH]c23)n1 [Example 96, 5-(4-chloro-3-(2,2,2-trifluoroethoxy)phenyl)-3-(1-methyl-1H-pyrazol-3-yl)pyrazolo[1,5-a]pyrimidin-7(4H)-one] |
| ≤ 10 µM | ≤ 10 µM | ≤ 10 µM | ≤ 10 µM | CCn1nccc1-c1cnn2c(=O)cc(-c3ccc(Cl)c(OC)c3)[nH]c12 [Example 65, 5-(4-chloro-3-methoxyphenyl)-3-(1-ethyl-1H-pyrazol-5-yl)pyrazolo[1,5-a]pyrimidin-7(4H)-one] |
| ≤ 10 µM | ≤ 10 µM | ≤ 10 µM | ≤ 10 µM | CCn1ncc2cc(-c3cc(=O)n4ncc(-c5cc(C)no5)c4[nH]3)ccc21 [Example 86, 5-(1-ethyl-1H-indazol-5-yl)-3-(3-methylisoxazol-5-yl)pyrazolo[1,5-a]pyrimidin-7(4H)-one] |
| ≤ 10 µM | > 10 µM | ≤ 10 µM | ≤ 10 µM | CCOc1cc(-c2cc(=O)n3ncc(-c4nc(C)co4)c3[nH]2)ccc1Cl [Example 21, 5-(4-chloro-3-ethoxyphenyl)-3-(4-methyl-1,3-oxazol-2-yl)-4H,7H-pyrazolo[1,5-a]pyrimidin-7-one] |
| ≤ 10 µM | ≤ 10 µM | ≤ 10 µM | ≤ 10 µM | CCn1ncc2cc(-c3cc(=O)n4ncc(-c5ncco5)c4[nH]3)ccc21 [Example 20, 5-(1-Ethyl-1H-indazol-5-yl)-3-(1,3-oxazol-2-yl)-4H,7H-pyrazolo[1,5-a]pyrimidin-7-one] |
| ≤ 10 µM | ≤ 10 µM | ≤ 10 µM | ≤ 10 µM | CCn1nccc1-c1cnn2c(=O)cc(-c3ccc(Cl)c(OCC(F)(F)F)c3)[nH]c12 [Example 94, 5-(4-chloro-3-(2,2,2-trifluoroethoxy)phenyl)-3-(1-ethyl-1H-pyrazol-5-yl)pyrazolo[1,5-a]pyrimidin-7(4H)-one] |
| ≤ 10 µM | ≤ 10 µM | ≤ 10 µM | ≤ 10 µM | COc1cc(-c2cc(=O)n3ncc(-c4nc(C)co4)c3[nH]2)ccc1Cl [Example 18, 5-(4-chloro-3-methoxyphenyl)-3-(4-methyl-1,3-oxazol-2-yl)-4H,7H-pyrazolo[1,5-a]pyrimidin-7-one] |
| ≤ 10 µM | ≤ 10 µM | ≤ 10 µM | ≤ 10 µM | O=c1cc(-c2ccc(Cl)cc2)[nH]c2c(-c3nccs3)cnn12 [Example 57, 5-(4-chlorophenyl)-3-(thiazol-2-yl)pyrazolo[1,5-a]pyrimidin-7(4H)-one] |
| ≤ 10 µM | ≤ 10 µM | ≤ 10 µM | ≤ 10 µM | Cc1coc(-c2cnn3c(=O)cc(-c4ccc5c(c4)OCO5)[nH]c23)n1 [Example 4, 5-(2H-1,3-benzodioxol-5-yl)-3-(4-methyl-1,3-oxazol-2-yl)-4H,7H-pyrazolo[1,5-a]pyrimidin-7-one] |
| ≤ 10 µM | ≤ 10 µM | ≤ 10 µM | ≤ 10 µM | CCc1coc(-c2cnn3c(=O)cc(-c4ccc5c(c4)OCO5)[nH]c23)n1 [Example 16, 5-(2H-1,3-benzodioxol-5-yl)-3-(4-ethyl-1,3-oxazol-2-yl)-4H,7H-pyrazolo[1,5-a]pyrimidin-7-one] |
| ≤ 10 µM | ≤ 10 µM | ≤ 10 µM | ≤ 10 µM | Cn1ncc2cc(-c3cc(=O)n4ncc(-c5ncco5)c4[nH]3)ccc21 [Example 73, 5-(1-methyl-1H-indazol-5-yl)-3-(oxazol-2-yl)-4H,7H-pyrazolo[1,5-a]pyrimidin-7-one] |
| ≤ 10 µM | ≤ 10 µM | ≤ 10 µM | ≤ 10 µM | Cc1cnc(-c2cnn3c(=O)cc(-c4ccc5c(c4)OCO5)[nH]c23)o1 [Example 3, 5-(2H-1,3-benzodioxol-5-yl)-3-(5-methyl-1,3-oxazol-2-yl)-4H,7H-pyrazolo[1,5-a]pyrimidin-7-one] |
| ≤ 10 µM | ≤ 10 µM | ≤ 10 µM | ≤ 10 µM | CCn1nccc1-c1cnn2c(=O)cc(-c3ccc4c(cnn4C)c3)[nH]c12 [Example 93, 3-(1-ethyl-1H-pyrazol-5-yl)-5-(1-methyl-1H-indazol-5-yl)pyrazolo[1,5-a]pyrimidin-7(4H)-one] |
